Series [1] addresses T1, human complement factor B (Homo sapiens, UniProt P00751).
T1 construct: purchased ComplementTech A135
The experiment in a line: TR-FRET competitive binding assay of human complement factor B (Cy5-labeled probe). The conditions noted are these: inhibitory activity against complement factor B; biotin-labeled factor B 25 nM, Cy5 probe 75 nM, 4 °C.

Series [2] has as its system alternative complement pathway in human serum. Briefly: Complement deposition assay of serum alternative pathway (Wieslab Complement system Alternative pathway kit). In kind it is biochemical. The conditions noted are these: human serum diluted 18-fold, 37 °C 60 minutes, absorbance 405 nm. The protocol: The Wieslab® Complement system Alternative pathway kit (WIESLAB® Complement system Alternative pathway AP330 RUO) was used to detect the inhibitory activity of the compounds on the alternative complement pathway in human serum. Human serum was diluted 18-fold with the kit diluent. The diluted serum was added to a 96-well plate at 130 µL/well. Using a compound titrator (Tecan, D300e), test compounds at corresponding concentrations were added. The test concentration of the compounds started at 10 µM, with 3-fold serial dilution for 6 concentration points, detected in single wells. The DMSO ratio was uniformly adjusted to 0.1% using DMSO in all drug-treated wells. In the positive control wells, 0.1% DMSO and 130 µL of diluted serum were added; in the negative control wells, 0.1% DMSO and 130 µL of the kit diluent were added. The mixtures were pre-incubated at room temperature for 15 min. The incubated mixtures were transferred to the 96-well plate provided by the kit at 100 µL per well, incubated at 37 °C for 60 minutes, and the liquid in the wells was discarded. 300 µL of the washing solution in the kit was added to each well. The wells were washed three times. 100 µL of the conjugated antibody Conjugate in the kit was added to each well, and it was incubated at room temperature for 30 minutes. The liquid in the wells was removed. 300 µL of the washing solution in the kit was added to each well and the wells were washed three times. 100 µL of the substrate solution was added to each well and incubated at room temperature for 30 minutes. […] Table 2. Results of complement deposition in serum alternative pathway

The nature of series [3]: Pharmacokinetic study in mice. Type of series: in vivo. To be noted: mouse, 10 mg/kg, PO (10 mpk), male ICR (CD-1) mice, plasma. The protocol: Experimental Example 3: Pharmacokinetic study in mice
Purpose of the experiment: To investigate the plasma pharmacokinetics in male ICR (CD-1) mice after single intravenous administration and gavage administration of the compounds of the present disclosure.
Experimental animals: Male ICR (CD-1) mice, body weight 32-35 g; supplier: Vital River Laboratory Animal Technology Co., Ltd.
Experimental procedures: Intravenous Administration (IV); Oral Gavage (PO); the dose was 10 mg/kg (vehicle: water (containing 0.5% methylcellulose (w/v) and 0.5% Tween 80 (v/v)).
Sample collection: At each set time point, 40 µL of blood was collected from the orbital sinus of the experimental animals. Whole blood samples were placed in anticoagulant tubes containing EDTA-K2. The whole blood samples were centrifuged at 1500 g for 10 min to separate plasma. The upper-layer plasma samples were collected into sample tubes for LC-MS/MS analysis.
Data analysis: Plasma concentrations were processed using the non-compartmental model in WinNonlin™Version6.3 (Pharsight, Mountain View, CA) pharmacokinetic software. Pharmacokinetic parameters Cl, T1/2, Cmax, and AUC0-24 were calculated using the linear-log trapezoidal method, and the results were shown in the table below. Table 3. Results of the pharmacokinetic study

In series [4] the test system is collagen antibody and lipopolysaccharide-induced arthritis (CAIA). The experiment in a line: Pharmacodynamic study in the mouse CAIA model (Experimental Example 5). Type of series: in vivo, BALB/c mice. The conditions noted are these: Mean; 20mg/kg bid oral, Day0-Day14; larger AUC = greater severity. The protocol:
Experimental Animals: BALB/c mice, male, 6-8 weeks, 18-20 g; Supplier: Shanghai Jihui Laboratory Animal Care Co., Ltd 1. Induction of the mouse CAIA model: On Day 0, all mice were intravenously injected via the tail vein with 0.15 mL of Arthrogen-CIA 5-clone mixed type II collagen antibody (10 mg/mL, Chondrex). […] 2. Administration: Table 7. Administration groups and administration schemes [table] The experimental data are expressed as mean±standard error (mean ± S.E.M.). The data were analyzed by One-way ANOVA/Dunnett's using Graphpad Prism and by Repeat Measurement ANOVA/Bonferroni using SPSS. P< 0.05 was considered to indicate a significant difference. Arthritis scoring: Starting from the day of modeling, the incidence of arthritis in the limbs of the animals in each group was observed three times a week until the end of the experiment. According to the different degrees of lesions (erythema and swelling), the scoring was carried out according to the standard of 0-4 points. […] The larger the AUC, the greater the severity of arthritis was. […] Arthritis score AUC

Series [5] has the same test system. Briefly: Collagen antibody-induced mouse arthritis model (Experimental Example 4). In kind it is in vivo, BALB/c mice. To be noted: Mean, 20 mg/kg oral twice a day. The protocol:
Experimental animals: BALB/c mice, male, 6-8 weeks, 18-20 g; supplier: Beijing Vital River Laboratory Animal Technology Co., Ltd. 1. […] 2. Administration: Table 4. Administration groups and administration schemes [table] The data were analyzed by One-way ANOVA/Dunnett's using Graphpad Prism and by Repeat Measurement ANOVA/Bonferroni using SPSS. P< 0.05 was considered to indicate a significant difference. Arthritis scoring: Starting from the day of modeling, the incidence of arthritis in the limbs of the animals in each group was observed three times a week until the end of the experiment. According to the different degrees of lesions (erythema and swelling), the scoring was carried out according to the standard of 0-4 points. […] Joint swelling: Starting from the day of modeling, the thickness of the left and right foot pads of the animals was measured three times a week using a micrometer (Mitutoyo, 0-25 mm, minimal 0.001 mm) until the end of the experiment.

T1 sequence (P00751 26-764): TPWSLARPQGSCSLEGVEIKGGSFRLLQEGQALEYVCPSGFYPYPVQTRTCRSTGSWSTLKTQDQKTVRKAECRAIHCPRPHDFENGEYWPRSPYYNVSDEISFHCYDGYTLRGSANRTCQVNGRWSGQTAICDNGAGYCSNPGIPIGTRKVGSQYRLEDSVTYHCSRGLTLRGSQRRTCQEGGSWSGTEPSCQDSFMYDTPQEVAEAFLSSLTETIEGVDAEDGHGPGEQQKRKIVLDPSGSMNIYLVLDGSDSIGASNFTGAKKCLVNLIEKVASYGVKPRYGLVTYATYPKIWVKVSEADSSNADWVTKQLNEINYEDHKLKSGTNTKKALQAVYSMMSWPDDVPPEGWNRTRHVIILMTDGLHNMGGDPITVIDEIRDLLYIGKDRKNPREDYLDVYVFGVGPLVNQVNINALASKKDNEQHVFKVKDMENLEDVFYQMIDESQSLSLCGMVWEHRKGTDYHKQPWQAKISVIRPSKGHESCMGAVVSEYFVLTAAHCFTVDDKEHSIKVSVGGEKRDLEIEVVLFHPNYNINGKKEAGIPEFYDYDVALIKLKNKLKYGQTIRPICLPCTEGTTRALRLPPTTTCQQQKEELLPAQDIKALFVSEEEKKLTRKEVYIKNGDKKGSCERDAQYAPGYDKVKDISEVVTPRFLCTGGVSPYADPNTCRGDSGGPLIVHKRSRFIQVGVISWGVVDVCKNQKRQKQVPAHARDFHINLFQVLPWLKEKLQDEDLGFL

Take `COc1cc(C)c2[nH]ccc2c1SC1CCN(CC(F)F)CC1c1ccc(C(=O)O)cc1` (single isomer, unassigned) [Example 16-2]: the IC50 in series [1] stood at 0.0124 µM; in series [2] it was […]. In series [3] (in vivo), this molecule registered a Cmax of 601 ng/mL. Besides, the AUC(0-t) at 24 h in series [3] (in vivo, read-out: AUC0-24) was found to be 5750 ng·h/mL. Besides, the “Arthritis score AUC” value in series [4] was determined as 7.25.
For the molecule `CCOC1CCC(Oc2c(OC)cc(C)c3[nH]ccc23)C(c2ccc(C(=O)O)cc2)C1` (single isomer, unassigned) [Example 20a-4], the IC50 amounted to 0.0122 µM in series [1] and 0.0867 µM in series [2].
With `COc1cc(C)c2[nH]ccc2c1O[C@@H]1CCN(CC(F)F)C[C@H]1c1ccc(C(=O)O)cc1` [Example 13a-2, 4-((3R,4R)-1-(2,2-difluoroethyl)-4-((5-methoxy-7-methyl-1H-indol-4-yl)oxy)piperidin-3-yl)benzoic acid], the IC50 in series [1] worked out at 0.006 µM; in series [2], 0.0541 µM. The molecule further yielded a Cmax in series [3] of 1290 ng/mL. For the same molecule, the AUC(0-t) in series [3] (read-out: AUC0-24) is 9680 ng·h/mL. The Arthritis score was 0.00 in series [5] (Day0); 0.00 in series [5] (Day3); 1.17 in series [5] (Day5); 1.83 in series [5] (Day7); 1.50 in series [5] (Day10); 1.33 in series [5] (Day12). In series [5] (Day14), the Arthritis score was 1.50. Also, the “Thickness of foot pads (mm)” value is 1.60 mm in series [5] (Day0); 1.607 mm in series [5] (Day3); 1.632 mm in series [5] (Day5); 1.665 mm in series [5] (Day7); 1.666 mm in series [5] (Day10); 1.661 mm in series [5] (Day12). Also, the “Thickness of foot pads (mm)” value in series [5] (Day14) was determined as 1.669 mm.
`COc1cc(C)c2[nH]ccc2c1O[C@@H]1CCN(CC(F)(F)F)C[C@H]1c1ccc(C(=O)O)cc1` [Example 14a-2, 4-((3R,4R)-4-((5-methoxy-7-methyl-1H-indol-4-yl)oxy)-1-(2,2,2-trifluoroethyl)piperidin-3-yl)benzoic acid]: the IC50 in series [1] turned out to be 0.0102 µM; in series [2] it was 0.0593 µM. This molecule came in with a Cmax in series [3] of 1370 ng/mL. In addition, the AUC(0-t) in series [3] (read-out: AUC0-24) came out at 6690 ng·h/mL. For the same molecule, the “Arthritis score AUC” value in series [4] turned out to be 3.00.

The values are drawn from patent EP4650351A1, “INHIBITOR OF COMPLEMENT FACTOR B” (Nanjing Chia Tai Tianqing Pharmaceutical Co., Ltd., priority 2023, dated 2024).
